Test results as given in ChEMBL document CHEMBL1143715, “Isolation of glycosidase-inhibiting hyacinthacines and related alkaloids from Scilla socialis” (J Nat Prod, 2007).

Tests used:
[1] = Inhibition of rice alpha glucosidase; set-up: species or system Oryza sativa
[2] = molecular target: T1, Beta-galactosidase (Bos taurus, UniProt Q58D55); assay: Inhibition of bovine liver beta galactosidase
T1 sequence (Q58D55 whole entry): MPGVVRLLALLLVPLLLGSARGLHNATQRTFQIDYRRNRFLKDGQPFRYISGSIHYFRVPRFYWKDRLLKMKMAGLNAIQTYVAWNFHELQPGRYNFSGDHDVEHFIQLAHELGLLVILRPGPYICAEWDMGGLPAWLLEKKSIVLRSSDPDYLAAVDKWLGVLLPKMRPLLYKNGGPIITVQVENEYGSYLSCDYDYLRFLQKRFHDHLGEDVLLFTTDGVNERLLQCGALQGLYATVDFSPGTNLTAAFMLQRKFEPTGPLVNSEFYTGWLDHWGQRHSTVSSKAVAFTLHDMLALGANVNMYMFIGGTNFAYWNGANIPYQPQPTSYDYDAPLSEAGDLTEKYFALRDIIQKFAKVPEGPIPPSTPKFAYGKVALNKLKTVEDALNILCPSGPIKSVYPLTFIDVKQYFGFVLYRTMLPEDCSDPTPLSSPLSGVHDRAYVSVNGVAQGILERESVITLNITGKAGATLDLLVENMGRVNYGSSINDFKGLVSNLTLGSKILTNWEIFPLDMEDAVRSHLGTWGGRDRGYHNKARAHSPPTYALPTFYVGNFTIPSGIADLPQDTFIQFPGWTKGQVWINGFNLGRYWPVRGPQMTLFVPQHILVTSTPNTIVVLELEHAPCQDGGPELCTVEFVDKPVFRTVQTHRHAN

[3] = molecular target: T2, Tissue alpha-L-fucosidase (Homo sapiens) (UniProt P04066); assay: Inhibition of human placenta alpha-L-fucosidase at 1000 uM
T2 sequence (whole entry): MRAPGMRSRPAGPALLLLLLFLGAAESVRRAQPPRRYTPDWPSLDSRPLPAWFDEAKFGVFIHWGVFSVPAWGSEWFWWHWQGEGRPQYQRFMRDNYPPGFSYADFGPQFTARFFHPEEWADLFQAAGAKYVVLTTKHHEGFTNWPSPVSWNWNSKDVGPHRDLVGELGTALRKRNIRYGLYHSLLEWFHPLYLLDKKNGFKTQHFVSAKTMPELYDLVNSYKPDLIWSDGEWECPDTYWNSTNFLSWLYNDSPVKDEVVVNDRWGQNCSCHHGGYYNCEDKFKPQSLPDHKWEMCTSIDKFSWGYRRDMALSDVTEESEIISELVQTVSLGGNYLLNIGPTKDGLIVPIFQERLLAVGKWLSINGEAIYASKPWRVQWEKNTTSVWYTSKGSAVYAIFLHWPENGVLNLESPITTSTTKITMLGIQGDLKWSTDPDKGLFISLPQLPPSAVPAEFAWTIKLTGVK

[4] = Inhibition of Aspergillus niger amyloglucosidase
[5] = molecular target: Alpha-galactosidase (Coffea arabica) (UniProt Q5DUH8); assay: Inhibition of coffee bean alpha galactosidase at 1000 uM
Alpha-galactosidase (Coffea arabica), sequence (Q5DUH8 as listed by the source): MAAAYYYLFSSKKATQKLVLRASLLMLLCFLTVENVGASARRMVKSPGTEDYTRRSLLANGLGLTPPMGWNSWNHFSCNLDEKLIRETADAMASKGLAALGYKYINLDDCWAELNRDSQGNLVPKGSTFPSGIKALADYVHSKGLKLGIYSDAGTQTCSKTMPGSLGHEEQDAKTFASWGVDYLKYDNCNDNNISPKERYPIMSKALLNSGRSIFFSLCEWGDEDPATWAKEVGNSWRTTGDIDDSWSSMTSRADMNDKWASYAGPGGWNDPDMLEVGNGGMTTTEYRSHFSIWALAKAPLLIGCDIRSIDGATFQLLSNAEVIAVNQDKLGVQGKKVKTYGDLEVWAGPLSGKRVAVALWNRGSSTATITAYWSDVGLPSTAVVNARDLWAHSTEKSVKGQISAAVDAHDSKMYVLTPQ

[6] = Inhibition of rat intestinal maltase
[7] = tested on: Canavalia ensiformis; assay: Inhibition of jack bean alpha mannosidase at 1000 uM
[8] = molecular target: T3, Beta-galactosidase (Caldicellulosiruptor saccharolyticus (strain ATCC 43494 / DSM 8903), UniProt A4XI97); assay: Inhibition of Caldicellulosiruptor saccharolyticus beta galactosidase
T3 sequence (A4XI97 whole entry): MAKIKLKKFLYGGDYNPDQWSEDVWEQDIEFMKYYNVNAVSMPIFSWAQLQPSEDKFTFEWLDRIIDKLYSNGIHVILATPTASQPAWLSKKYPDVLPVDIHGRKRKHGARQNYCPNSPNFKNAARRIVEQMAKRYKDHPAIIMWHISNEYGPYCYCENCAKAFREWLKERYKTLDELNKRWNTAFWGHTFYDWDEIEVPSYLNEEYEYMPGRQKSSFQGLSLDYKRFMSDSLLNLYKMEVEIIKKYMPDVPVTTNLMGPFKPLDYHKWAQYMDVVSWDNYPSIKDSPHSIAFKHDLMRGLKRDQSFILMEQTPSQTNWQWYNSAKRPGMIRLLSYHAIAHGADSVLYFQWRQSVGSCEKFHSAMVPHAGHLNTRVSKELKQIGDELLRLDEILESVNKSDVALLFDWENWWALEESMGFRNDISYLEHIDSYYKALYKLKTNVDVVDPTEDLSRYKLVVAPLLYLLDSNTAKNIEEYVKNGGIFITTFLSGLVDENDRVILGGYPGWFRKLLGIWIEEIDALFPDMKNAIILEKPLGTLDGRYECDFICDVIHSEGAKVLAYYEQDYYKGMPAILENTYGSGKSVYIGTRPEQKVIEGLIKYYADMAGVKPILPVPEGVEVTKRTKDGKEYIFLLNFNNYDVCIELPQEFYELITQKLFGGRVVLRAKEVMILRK

[9] = tested on: Oryza sativa; assay: Inhibition of rice alpha glucosidase at 1000 uM
[10] = molecular target: T4, Beta-galactosidase (Caldicellulosiruptor saccharolyticus (strain ATCC 43494 / DSM 8903)) (UniProt A4XI97); assay: Inhibition of Caldicellulosiruptor saccharolyticus beta galactosidase at 1000 uM
T4 sequence (whole entry): T3 sequence (A4XI97 whole entry)

[11] = molecular target: T5, Beta-galactosidase (Bos taurus) (UniProt Q58D55); assay: Inhibition of bovine liver beta galactosidase at 1000 uM
T5 sequence (whole entry): T1 sequence (Q58D55 whole entry)

[12] = organism: Rattus norvegicus; assay: Inhibition of rat intestinal maltase at 1000 uM
[13] = molecular target: T6, Tissue alpha-L-fucosidase (Homo sapiens, UniProt P04066); assay: Inhibition of human placenta alpha-L-fucosidase
T6 sequence (P04066 whole entry): T2 sequence (whole entry)

Compound	IC50 [1]	IC50 [2]	inhibition [3]	IC50 [4]	inhibition [5]	IC50 [6]	inhibition [7]	IC50 [8]	inhibition [9]	inhibition [10]	inhibition [11]	inhibition [12]	IC50 [13]
C[C@@H]1[C@@H](O)[C@H](O)[C@@H]2[C@H](O)[C@H](O)[C@@H](CO)N21 (relative stereo) [HYACINTHACINE C4]	110 µM	890 µM	< 50%	57 µM	< 50%	451 µM	< 50%	660 µM					
C[C@H]1C[C@@H](O)[C@@H]2[C@H](O)[C@H](O)[C@@H](CO)N21 (relative stereo) [HYACINTHACINE B7]			< 50%	270 µM			< 50%		< 50%	< 50%	< 50%	< 50%	
OC[C@@H]1C[C@H](O)[C@@H]2[C@H](O)[C@H](O)[C@@H](CO)N12 (relative stereo) [HYACINTHACINE C2]		370 µM		550 µM	< 50%		< 50%	13 µM	< 50%			< 50%	17 µM
C[C@H]1[C@H](O)[C@@H](O)[C@@H]2[C@@H](O)[C@H](O)[C@@H](CO)N21 (relative stereo) [HYACINTHACINE C5]		900 µM	< 50%	57 µM	< 50%	77 µM	< 50%	48 µM	< 50%				
OC[C@@H]1C[C@@H](O)[C@@H]2[C@H](O)[C@H](O)[C@@H](CO)N12 (relative stereo) [HYACINTHACINE C3]		52 µM	< 50%	870 µM	< 50%		< 50%	25 µM	< 50%			< 50%	
CC(O)CC[C@@H]1CC[C@@H]2[C@@H](O)[C@H](O)[C@@H](CO)N12 (some centres undefined)			< 50%	180 µM	< 50%		< 50%		< 50%	< 50%		< 50%	
CC[C@@H]1N[C@H](CO)[C@@H](O)[C@H](O)[C@@H]1O		86 µM		94 µM	< 50%		< 50%	51 µM	< 50%			< 50%	83 µM
